Columns and labels:
Assay in all cases: Differential Scanning Fluorimetry (DSF) Tm shift
Type in all cases: binding
[1] = biological target: T1, STK3 Catalytic domain+SARAH (Homo sapiens, UniProt Q13188); settings: 2 µM protein, 10 µM inhibitor, average of 3 experiments, each in duplicate
T1 construct: for 8, we also made a longer version containing one or more additional domains; His-tag; made in house; host or cells: Escherichia coli
T1 sequence (Q13188 1-491): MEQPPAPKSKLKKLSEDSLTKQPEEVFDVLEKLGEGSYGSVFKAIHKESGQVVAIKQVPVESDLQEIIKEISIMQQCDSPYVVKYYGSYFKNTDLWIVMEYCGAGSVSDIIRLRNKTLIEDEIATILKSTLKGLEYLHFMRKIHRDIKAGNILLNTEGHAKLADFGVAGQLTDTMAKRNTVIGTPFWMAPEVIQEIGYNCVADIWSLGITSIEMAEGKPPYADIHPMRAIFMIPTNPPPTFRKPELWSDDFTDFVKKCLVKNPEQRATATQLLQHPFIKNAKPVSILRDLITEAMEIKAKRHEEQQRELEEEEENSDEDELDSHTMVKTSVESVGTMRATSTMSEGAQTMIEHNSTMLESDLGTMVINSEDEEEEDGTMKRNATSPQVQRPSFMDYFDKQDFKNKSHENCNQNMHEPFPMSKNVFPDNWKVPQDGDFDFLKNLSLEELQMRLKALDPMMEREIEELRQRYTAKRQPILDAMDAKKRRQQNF

FES Catalytic Domain+SH2 = biological target: T2, FES Catalytic Domain+SH2 (Homo sapiens, UniProt P07332); settings: 2 µM protein, 10 µM inhibitor, average of 3 experiments, each in duplicate
T2 construct: for 8, we also made a longer version containing one or more additional domains; His-tag; made in house; host or cells: Escherichia coli

CHK2 Catalytic Domain = biological target: T3, CHK2 Catalytic Domain (Homo sapiens, UniProt O96017); settings: 2 µM protein, 10 µM inhibitor, average of 3 experiments, each in duplicate
T3 construct: For all of them, we expressed and purified the catalytic domain separately; His-tag; made in house; host or cells: Escherichia coli

STK3 Catalytic Domain = biological target: T4, STK3 Catalytic Domain (Homo sapiens, UniProt Q13188); settings: 2 µM protein, 10 µM inhibitor, average of 3 experiments, each in duplicate
T4 construct: For all of them, we expressed and purified the catalytic domain separately; His-tag; made in house; host or cells: Escherichia coli
T4 sequence (Q13188 27-278 limits assumed): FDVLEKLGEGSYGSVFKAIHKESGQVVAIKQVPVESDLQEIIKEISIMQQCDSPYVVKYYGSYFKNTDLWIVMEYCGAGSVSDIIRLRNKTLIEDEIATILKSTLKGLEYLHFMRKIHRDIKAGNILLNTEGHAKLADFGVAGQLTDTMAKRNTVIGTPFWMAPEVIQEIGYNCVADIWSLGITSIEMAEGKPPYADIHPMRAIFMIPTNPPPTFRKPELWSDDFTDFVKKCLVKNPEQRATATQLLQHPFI

FES Catalytic Domain = biological target: T5, FES Catalytic Domain (Homo sapiens, UniProt P07332); settings: 2 µM protein, 10 µM inhibitor, average of 3 experiments, each in duplicate
T5 construct: For all of them, we expressed and purified the catalytic domain separately; His-tag; made in house; host or cells: Escherichia coli

FAK2 Catalytic Domain = biological target: T6, FAK2 Catalytic Domain (Homo sapiens, UniProt Q14289); settings: 2 µM protein, 10 µM inhibitor, average of 3 experiments, each in duplicate
T6 construct: For all of them, we expressed and purified the catalytic domain separately; His-tag; made in house; host or cells: Escherichia coli

[2] = biological target: SRC Catalytic Domain+SH2+SH3 (Homo sapiens, UniProt P12931); settings: 2 µM protein, 10 µM inhibitor, average of 3 experiments, each in duplicate
SRC Catalytic Domain = SRC Catalytic Domain (Homo sapiens, UniProt P12931); parameters: For all of them, we expressed and purified the catalytic domain separately; His-tag; made in house; host or cells: Escherichia coli; settings: 2 µM protein, 10 µM inhibitor, average of 3 experiments, each in duplicate
PAK4 Catalytic Domain = biological target: T7, PAK4 Catalytic Domain (Homo sapiens, UniProt O96013); settings: 2 µM protein, 10 µM inhibitor, average of 3 experiments, each in duplicate
T7 construct: For all of them, we expressed and purified the catalytic domain separately; His-tag; made in house; host or cells: Escherichia coli

PAK7 Catalytic Domain = biological target: T8, PAK7 Catalytic Domain (Homo sapiens, UniProt Q9P286); settings: 2 µM protein, 10 µM inhibitor, average of 3 experiments, each in duplicate
T8 construct: For all of them, we expressed and purified the catalytic domain separately; His-tag; made in house; host or cells: Escherichia coli

DMPK Catalytic Domain = biological target: T9, DMPK Catalytic Domain (Homo sapiens, UniProt Q09013); settings: 2 µM protein, 10 µM inhibitor, average of 3 experiments, each in duplicate
T9 construct: For all of them, we expressed and purified the catalytic domain separately; His-tag; made in house; host or cells: Escherichia coli
T9 sequence (Q09013 71-339 limits assumed): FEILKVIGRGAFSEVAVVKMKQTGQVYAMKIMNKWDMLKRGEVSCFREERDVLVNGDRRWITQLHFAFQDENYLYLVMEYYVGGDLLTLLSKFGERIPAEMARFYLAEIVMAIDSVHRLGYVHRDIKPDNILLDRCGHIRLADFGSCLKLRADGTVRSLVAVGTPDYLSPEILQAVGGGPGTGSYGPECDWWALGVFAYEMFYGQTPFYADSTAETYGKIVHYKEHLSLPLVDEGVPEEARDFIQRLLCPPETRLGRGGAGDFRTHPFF

AKT3 Catalytic Domain = biological target: T10, AKT3 Catalytic Domain (Homo sapiens, UniProt Q9Y243); settings: 2 µM protein, 10 µM inhibitor, average of 3 experiments, each in duplicate
T10 construct: AKT3 (Q9Y243); CD; His-tag; made in house; host or cells: Escherichia coli

[3] = biological target: T11, PAK4 Catalytic Domain+PBD (Homo sapiens, UniProt O96013); settings: 2 µM protein, 10 µM inhibitor, average of 3 experiments, each in duplicate
T11 construct: for 8, we also made a longer version containing one or more additional domains; His-tag; made in house; host or cells: Escherichia coli

CDK2 + Cyclin A = biological target: T12, CDK2 + Cyclin A (Homo sapiens, UniProt P24941); settings: CDK2 + Cyclin A; 2 µM protein, 10 µM inhibitor; average of 3 experiments, each in duplicate
T12 construct: CDK2 (P24941); 1–299; His-tag; made in house; host or cells: Escherichia coli

T7 sequence (O96013 321-572 limits assumed): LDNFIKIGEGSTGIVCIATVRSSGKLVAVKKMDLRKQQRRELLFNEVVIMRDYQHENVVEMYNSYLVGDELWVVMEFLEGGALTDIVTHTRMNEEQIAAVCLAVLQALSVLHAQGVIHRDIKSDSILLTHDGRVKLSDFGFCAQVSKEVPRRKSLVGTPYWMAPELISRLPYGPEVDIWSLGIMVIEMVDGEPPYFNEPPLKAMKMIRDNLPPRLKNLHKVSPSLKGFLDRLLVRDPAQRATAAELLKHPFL
T6 sequence (Q14289 425-683 limits assumed): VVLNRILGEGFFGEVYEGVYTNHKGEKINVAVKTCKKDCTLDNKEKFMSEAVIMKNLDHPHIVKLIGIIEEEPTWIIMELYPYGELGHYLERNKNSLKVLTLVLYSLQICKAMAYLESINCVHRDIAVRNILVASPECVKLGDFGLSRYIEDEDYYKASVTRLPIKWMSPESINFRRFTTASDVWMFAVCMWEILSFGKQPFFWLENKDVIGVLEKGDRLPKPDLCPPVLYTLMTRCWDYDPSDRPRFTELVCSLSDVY
T2 sequence (P07332 448-822 limits assumed): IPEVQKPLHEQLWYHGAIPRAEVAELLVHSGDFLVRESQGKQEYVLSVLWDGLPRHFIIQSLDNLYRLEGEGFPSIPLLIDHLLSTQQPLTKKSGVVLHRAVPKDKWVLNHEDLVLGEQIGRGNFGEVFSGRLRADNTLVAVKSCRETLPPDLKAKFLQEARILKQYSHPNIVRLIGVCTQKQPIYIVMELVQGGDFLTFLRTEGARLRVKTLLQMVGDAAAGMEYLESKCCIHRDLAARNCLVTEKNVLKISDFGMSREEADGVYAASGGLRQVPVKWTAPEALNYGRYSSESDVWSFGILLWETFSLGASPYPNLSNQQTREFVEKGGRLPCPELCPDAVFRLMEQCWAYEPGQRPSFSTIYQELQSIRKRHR
T8 sequence (Q9P286 449-700 limits assumed): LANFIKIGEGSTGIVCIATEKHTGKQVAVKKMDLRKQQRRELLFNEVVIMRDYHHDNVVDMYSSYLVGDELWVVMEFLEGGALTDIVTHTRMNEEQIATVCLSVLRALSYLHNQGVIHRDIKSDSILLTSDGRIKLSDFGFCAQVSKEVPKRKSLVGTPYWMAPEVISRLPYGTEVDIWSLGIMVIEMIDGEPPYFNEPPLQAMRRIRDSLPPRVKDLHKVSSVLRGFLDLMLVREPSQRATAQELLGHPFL
T10 sequence (Q9Y243 122-479): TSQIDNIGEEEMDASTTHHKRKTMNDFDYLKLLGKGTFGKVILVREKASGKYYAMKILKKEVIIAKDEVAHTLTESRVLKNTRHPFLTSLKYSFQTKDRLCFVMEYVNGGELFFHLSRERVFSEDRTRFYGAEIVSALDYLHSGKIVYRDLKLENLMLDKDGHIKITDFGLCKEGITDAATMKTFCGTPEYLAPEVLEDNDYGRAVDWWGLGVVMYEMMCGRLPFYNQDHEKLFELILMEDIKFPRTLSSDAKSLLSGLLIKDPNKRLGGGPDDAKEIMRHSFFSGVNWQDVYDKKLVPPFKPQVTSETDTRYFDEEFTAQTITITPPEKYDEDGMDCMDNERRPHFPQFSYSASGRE
T11 sequence (O96013 whole entry, the tested form may be a part): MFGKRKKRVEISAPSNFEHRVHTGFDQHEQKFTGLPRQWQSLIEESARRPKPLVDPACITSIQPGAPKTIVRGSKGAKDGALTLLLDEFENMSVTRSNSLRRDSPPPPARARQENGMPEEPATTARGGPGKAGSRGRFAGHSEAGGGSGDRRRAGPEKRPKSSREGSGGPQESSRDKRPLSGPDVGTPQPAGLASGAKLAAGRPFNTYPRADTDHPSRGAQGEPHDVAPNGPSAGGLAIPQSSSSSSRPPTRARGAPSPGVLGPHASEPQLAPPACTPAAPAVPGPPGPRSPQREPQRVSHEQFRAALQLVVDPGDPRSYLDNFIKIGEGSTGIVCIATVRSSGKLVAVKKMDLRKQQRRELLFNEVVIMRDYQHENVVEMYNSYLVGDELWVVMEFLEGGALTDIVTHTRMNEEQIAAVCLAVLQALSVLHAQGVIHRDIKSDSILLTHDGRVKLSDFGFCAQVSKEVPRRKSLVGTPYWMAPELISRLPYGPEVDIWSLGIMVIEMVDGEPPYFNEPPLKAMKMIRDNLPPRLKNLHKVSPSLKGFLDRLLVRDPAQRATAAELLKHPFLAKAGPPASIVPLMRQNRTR
Chain of SRC Catalytic Domain (P12931 270-523 limits assumed): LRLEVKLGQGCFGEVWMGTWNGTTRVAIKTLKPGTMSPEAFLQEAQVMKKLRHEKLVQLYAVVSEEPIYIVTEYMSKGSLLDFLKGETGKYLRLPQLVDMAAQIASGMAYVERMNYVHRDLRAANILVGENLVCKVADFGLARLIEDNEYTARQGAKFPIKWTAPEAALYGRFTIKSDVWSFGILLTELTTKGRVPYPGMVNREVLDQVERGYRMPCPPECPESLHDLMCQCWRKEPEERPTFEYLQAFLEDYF
T3 sequence (O96017 220-486 limits assumed): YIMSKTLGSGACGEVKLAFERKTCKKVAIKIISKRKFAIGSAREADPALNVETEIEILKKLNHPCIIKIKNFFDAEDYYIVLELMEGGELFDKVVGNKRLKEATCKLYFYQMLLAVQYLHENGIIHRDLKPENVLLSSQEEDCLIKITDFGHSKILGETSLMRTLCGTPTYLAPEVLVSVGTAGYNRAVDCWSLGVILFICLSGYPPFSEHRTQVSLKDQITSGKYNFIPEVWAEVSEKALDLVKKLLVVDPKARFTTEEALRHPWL
Chain of SRC Catalytic Domain+SH2+SH3 (P12931 84-523 limits assumed): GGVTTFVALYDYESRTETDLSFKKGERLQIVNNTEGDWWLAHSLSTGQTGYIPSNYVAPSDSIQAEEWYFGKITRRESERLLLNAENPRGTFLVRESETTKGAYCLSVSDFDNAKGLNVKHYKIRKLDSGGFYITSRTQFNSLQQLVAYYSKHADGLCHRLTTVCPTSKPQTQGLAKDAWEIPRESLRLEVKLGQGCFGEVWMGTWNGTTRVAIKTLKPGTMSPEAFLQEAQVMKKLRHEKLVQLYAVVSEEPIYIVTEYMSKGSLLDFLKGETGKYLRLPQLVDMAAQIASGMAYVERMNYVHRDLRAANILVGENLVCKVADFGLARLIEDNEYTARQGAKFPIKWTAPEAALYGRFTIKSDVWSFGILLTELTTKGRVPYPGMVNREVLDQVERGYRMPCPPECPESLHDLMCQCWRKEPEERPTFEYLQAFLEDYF
T5 sequence (P07332 561-822 limits assumed): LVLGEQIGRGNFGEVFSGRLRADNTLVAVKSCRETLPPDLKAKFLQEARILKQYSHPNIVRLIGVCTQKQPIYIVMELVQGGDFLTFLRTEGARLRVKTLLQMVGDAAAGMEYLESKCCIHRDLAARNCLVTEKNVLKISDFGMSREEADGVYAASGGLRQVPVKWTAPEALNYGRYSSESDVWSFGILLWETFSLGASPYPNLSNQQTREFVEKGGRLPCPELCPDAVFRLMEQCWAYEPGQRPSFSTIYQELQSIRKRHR

| Compound | Melting temperature (Tm) shift [1] | Melting temperature (Tm) shift (FES Catalytic Domain+SH2) | Melting temperature (Tm) shift (CHK2 Catalytic Domain) | Melting temperature (Tm) shift (STK3 Catalytic Domain) | Melting temperature (Tm) shift (FES Catalytic Domain) | Melting temperature (Tm) shift (FAK2 Catalytic Domain) | Melting temperature (Tm) shift [2] | Melting temperature (Tm) shift (SRC Catalytic Domain) | Melting temperature (Tm) shift (PAK4 Catalytic Domain) | Melting temperature (Tm) shift (PAK7 Catalytic Domain) | Melting temperature (Tm) shift (DMPK Catalytic Domain) | Melting temperature (Tm) shift (AKT3 Catalytic Domain) | Melting temperature (Tm) shift [3] | Melting temperature (Tm) shift (CDK2 + Cyclin A) |
| --- | --- | --- | --- | --- | --- | --- | --- | --- | --- | --- | --- | --- | --- | --- |
| CCCC(=O)Oc1ccc2[nH]c(C(=O)c3cc4ccccc4[nH]3)cc2c1 | 1.2 degrees Celcius | 0.1 degrees Celcius | 1.4 degrees Celcius | 0.5 degrees Celcius | 0.3 degrees Celcius | 0.3 degrees Celcius | 0.6 degrees Celcius | 1.1 degrees Celcius | 0.0 degrees Celcius | 0.1 degrees Celcius | – | – | – | – |
| O=C(Nc1cccc(Nc2nccc(Nc3cccc(C(F)(F)F)c3)n2)c1)C1CC1 [Aurora Kinase Inhibitor III] | 0.4 degrees Celcius | 0.3 degrees Celcius | 0.4 degrees Celcius | 0.1 degrees Celcius | 0.2 degrees Celcius | 0.2 degrees Celcius | 0.0 degrees Celcius | 0.2 degrees Celcius | 0.8 degrees Celcius | 0.0 degrees Celcius | 0.9 degrees Celcius | 0.1 degrees Celcius | 1.1 degrees Celcius | 0.2 degrees Celcius |
| COc1cc2ncnc(Nc3ccc(NC(=O)c4ccccc4)cc3)c2cc1OC [Aurora Kinase Inhibitor II] | 0.4 degrees Celcius | 0.2 degrees Celcius | 7.0 degrees Celcius | 0.9 degrees Celcius | 0.1 degrees Celcius | 0.3 degrees Celcius | 0.4 degrees Celcius | 0.7 degrees Celcius | – | – | 0.1 degrees Celcius | 0.1 degrees Celcius | 0.1 degrees Celcius | 0.1 degrees Celcius |
| Cc1nc(N)sc1-c1ccnc(Nc2cccc([N+](=O)[O-])c2)n1 [Cdk2/9 Inhibitor] | 0.4 degrees Celcius | 0.1 degrees Celcius | 1.8 degrees Celcius | 0.7 degrees Celcius | 0.3 degrees Celcius | 0.5 degrees Celcius | 0.6 degrees Celcius | 0.5 degrees Celcius | 0.7 degrees Celcius | 0.3 degrees Celcius | 0.4 degrees Celcius | – | 2.0 degrees Celcius | – |
| CN1C(=O)C(=C2Nc3ccccc3C2=NO)c2ccc(Br)cc21 [GSK-3 Inhibitor IX, Control, MeBIO] | 0.4 degrees Celcius | – | – | 0.1 degrees Celcius | – | 0.1 degrees Celcius | 0.0 degrees Celcius | 0.0 degrees Celcius | 0.0 degrees Celcius | 0.0 degrees Celcius | – | – | 0.3 degrees Celcius | – |
| COc1cc2nccc(Oc3ccc(NC(=S)NC(=O)c4ccccc4C)cc3)c2cc1OC [PDGF RTK Inhibitor] | 0.0 degrees Celcius | 1.5 degrees Celcius | 7.6 degrees Celcius | 1.7 degrees Celcius | 1.6 degrees Celcius | 1.0 degrees Celcius | 3.9 degrees Celcius | 5.9 degrees Celcius | – | – | – | – | – | – |
| CS(=O)(=O)O.Cn1cc(C2=C(c3cn(CCCSC(=N)N)c4ccccc34)C(=O)NC2=O)c2ccccc21 [Ro-31-8220] | 2.9 degrees Celcius | 0.8 degrees Celcius | 6.6 degrees Celcius | 1.8 degrees Celcius | 1.0 degrees Celcius | 0.5 degrees Celcius | 0.0 degrees Celcius | 0.2 degrees Celcius | 1.5 degrees Celcius | 0.9 degrees Celcius | 4.8 degrees Celcius | 1.6 degrees Celcius | 1.6 degrees Celcius | – |
| COc1cc2ncnc(Nc3ccc(Cl)cc3Cl)c2cc1OC [Ste11 MAPKKK Activation Inhibitor] | 0.6 degrees Celcius | 0.1 degrees Celcius | 10.6 degrees Celcius | 0.3 degrees Celcius | 0.1 degrees Celcius | 0.4 degrees Celcius | 0.7 degrees Celcius | 0.5 degrees Celcius | 0.0 degrees Celcius | 0.0 degrees Celcius | 0.4 degrees Celcius | – | 0.1 degrees Celcius | 0.1 degrees Celcius |
| CN[C@@H]1C[C@H]2O[C@@](C)([C@@H]1OC)n1c3ccccc3c3c4c(c5c6ccccc6n2c5c31)C(=O)N[C@@H]4O [UCN-01] | 12.7 degrees Celcius | 1.3 degrees Celcius | 1.7 degrees Celcius | 7.6 degrees Celcius | 5.2 degrees Celcius | 5.9 degrees Celcius | 1.2 degrees Celcius | 0.4 degrees Celcius | 6.2 degrees Celcius | 7.4 degrees Celcius | 5.9 degrees Celcius | 3.2 degrees Celcius | 6.8 degrees Celcius | – |

Source: PMC4051630, “A Comparison of Protein Kinases Inhibitor Screening Methods Using Both Enzymatic Activity and Binding Affinity Determination” (PLoS ONE, 2014)
